From patent US6291488A, “Preventing protozoal infections” (Glaxo Wellcome Inc., priority 1992, dated 2001)
Values joined by “and” are separate entries in the source; they are usually repeats but may differ in a detail not shown here. Identical values can stand only once.

Columns and labels:
[1] = test system: P. falciparum D-6 (drug-sensitive but melfloquine resistant D-6 clone); assay: In vitro drug combination sensitivity (Desjardins hypoxanthine incorporation), D-6 clone; assay type: cell-based; settings: drug combined with compound of Example 1, positive = synergistic, negative = antagonism, 0 = additive
Procedure: (§1) Antimalarial activity in this system is assessed by inhibition of radiolabelled hypoxanthine incorporation into parasites by graded concentrations of drugs.
(§2) The drugs tested and their solvents are listed below:
(§3) In order to study drug combinations, drug solutions at starting concentrations were combined in various ratios and 1:5,1:2,2:1 and 5:1). […] Serial 1:3 dilutions of the drugs with media were made to fill the 96-well microtitre plate using a 12-channel pipetter. To evaluate drugs classified as dihydrofolic acid reductase (DHFR) inhibitors, modified culture medium was used which contained only physiologic concentrations of folic acid and PABA.
(§4) Individual IC50 s were calculated using the "MINSQ" program from Micromath Scientific Software. Each set of paired data was fitted to the hyperbolic tangent function used by Desjardins.
(§5) An isobologram was constructed by fitting the data to the equation:
(§6) Y1-[Xi /(Xi +e^I *(1-Xi))]
(§7) I=interaction parameter indicating degree of reversal
(§8) Positive values of I indicated a synergistic combination, negative values indicated antagonism and I=O indicated additive interaction.
(§9) The optimum ratio of the combination with proguanil was estimated for each of the three strains of malaria parasite by determining the ratio of the IC50 of proguanil to the IC50 of the compound of Formula (II).

[2] = test system: P. falciparum W-2 (multi-drug resistant W-2 clone); assay: In vitro drug combination sensitivity (Desjardins hypoxanthine incorporation), W-2 clone; assay type: cell-based; settings: drug combined with compound of Example 1, positive = synergistic, negative = antagonism, 0 = additive
Procedure: as §1, §2, §3, §4, §5, §6, §7
Positive values of I indicated a synergistic combination, negative values indicated antagonism and I=O indicated additive interaction. […]

Pneumocystis = assay: Anti-Pneumocystis activity in vivo, scid mouse model of Pneumocystis pneumonia; set-up: species or system P. carinii; scid mice; key to Mean Score ±SE: score 0 = no infection, +4 = very heavy infection; settings: for number of mice with SCORE 0: 0 = no infection; for % of Control: mean score
Procedure: Comparison of anti-Pneumocystis activities in vivo of compound of Example 1 proguanil and combinations thereof
Activities of the compounds and combinations were examined in a scid mouse model of Pneumocystis pneumonia.
The level of infection of mice in each group was measured using standard lung impression smears and immunofluorescence tests. A score was assigned to each mouse where 0=no infection and +4=very heavy infection.

T. gondii C56 strain = assay: Anti-Toxoplasma activity in vivo, mouse model of T. gondii; set-up: species or system T. gondii; CBA/CA mice; settings: oral gavage; for Mean Time to Death: 10 days
From the text: Comparison of anti-Toxoplasma activities in vivo of compound of Example 1, proguanil and combinations thereof
Activities of the compounds and combinations were examined in a mouse model of T. gondii, using the increase in time to death and percent survival of the mice as measures of drug activity.
Groups of 10, 20 gm CBA/CA mice were infected orally by gavage with 6 cysts of the C56 strain of T. gondii and drug treatment was started 3 days later and continued for 10 day. All drugs were administered orally by gavage. The following groups were examined:
All animals were examined twice daily for 30 days and all deaths recorded.

[3] = test system: P. falciparum C2B (isolate resistant to the compound of example 1); assay type: cell-based; settings: drug combined with compound of Example 1, positive = synergistic, negative = antagonism, 0 = additive
Procedure: as §1, §2, §3, §4, §5, §6, §7, §8, §9

[4] = 25 mg/kg p.o. daily, +4 = very heavy infection

Cc1nc(C)c(Cl)c(O)c1Cl [Clopidol]
I (interaction parameter) [1]: 0.73

CC1(C)N=C(N)N=C(N)N1c1ccc(Cl)cc1 [Cycloguanil]
I (interaction parameter) [1]: 1.66 | I (interaction parameter) [2]: 2.21

Cc1cc(NS(=O)(=O)c2ccc(N)cc2)no1 [Sulfamethoxazole]
I (interaction parameter) [2]: 2.75

CN(C)C1C(=O)C(C(N)=O)=C(O)C2(O)C(=O)C3=C(O)c4c(O)cccc4C(C)(O)C3CC12 (centres unmarked) [Tetracycline]
I (interaction parameter) [1]: 1.11 | I (interaction parameter) [2]: 1.27

O=C1C(O)=C([C@H]2CC[C@H](c3ccc(Cl)cc3)CC2)C(=O)c2ccccc21 [Atovaquone, 2-[4-(4-chlorophenyl)cyclohexyl]-3-hydroxy-1,4-naphthoquinone]
Mean Score ±SE (Pneumocystis; 25 mg/kg p.o. daily): 3.10 ± 0.17 | No. Infected/No. Examined (Pneumocystis; 25 mg/kg p.o. daily): 10/10 | number of mice with SCORE +1 (Pneumocystis; 25 mg/kg p.o. daily): 0 | number of mice with SCORE +3 (Pneumocystis; 25 mg/kg p.o. daily): 1 | number of mice with SCORE +4 (Pneumocystis; 25 mg/kg p.o. daily): 7 | number of mice with SCORE 0 (Pneumocystis; 25 mg/kg p.o. daily): 0 | number of mice with SCORE +4 (Pneumocystis; [4]): 2 | Mean Score ±SE (Pneumocystis; 50 mg/kg p.o. daily): 2.50 ± 0.16 | No. Infected/No. Examined (Pneumocystis; 50 mg/kg p.o. daily): 10/10 | number of mice with SCORE +1 (Pneumocystis; 50 mg/kg p.o. daily): 0 | number of mice with SCORE +3 (Pneumocystis; 50 mg/kg p.o. daily): 5 | number of mice with SCORE +4 (Pneumocystis; 50 mg/kg p.o. daily): 5 | number of mice with SCORE 0 (Pneumocystis; 50 mg/kg p.o. daily): 0 | number of mice with SCORE +4 (Pneumocystis; 50 mg/kg p.o. daily, +4 = very heavy infection): 0 | infection score (in words) (Pneumocystis; dosed alone): reductions in the infection score | % of Control (Pneumocystis; 25 mg/kg p.o. daily): 84% | % of Control (Pneumocystis; 50 mg/kg p.o. daily): 68% | percent survival (T. gondii C56 strain; 10 mg/kg): 10% | Mean Time to Death (T. gondii C56 strain; 10 mg/kg): 20.1 days | percent survival (T. gondii C56 strain; 25 mg/kg): 10% | Mean Time to Death (T. gondii C56 strain; 25 mg/kg): 24.1 days

CC1(C)N=C(N)N=C(N)N1OCCCOc1cc(Cl)c(Cl)cc1Cl [WR99210]
I (interaction parameter) [2]: 0.02

C[C@H]1[C@H](OC(=O)CCC(=O)O)O[C@@H]2O[C@@]3(C)CC[C@H]4[C@H](C)CC[C@@H]1[C@@]24OO3 [Artesunic acid]
I (interaction parameter) [1]: -0.18

CCN(CC)CCCC(C)Nc1ccnc2cc(Cl)ccc12 (centres unmarked) [Chloroquine]
I (interaction parameter) [1]: -1.40 | I (interaction parameter) [2]: -1.84

CCc1nc(N)nc(N)c1-c1ccc(Cl)cc1 [Pyrimethamine]
I (interaction parameter) [2]: 0.36 | I (interaction parameter) [3]: -0.48

CC(C)NC(=N)NC(=N)NOCCCOc1cc(Cl)c(Cl)cc1Cl [PS-15]
I (interaction parameter) [1]: -0.74

OC(c1cc(C(F)(F)F)nc2c(C(F)(F)F)cccc12)C1CCCCN1 (centres unmarked) [Mefloquine]
I (interaction parameter) [2]: -1.19

COc1cc(Cc2cnc(N)nc2N)cc(OC)c1OC [Trimethoprim]
I (interaction parameter) [2]: 1.27 | I (interaction parameter) [3]: 0.58

COc1cc(NC(C)CCCN)c2ncccc2c1 (centres unmarked) [Primaquine]
I (interaction parameter) [2]: -0.79

Nc1ccc(S(=O)(=O)c2ccc(N)cc2)cc1 [Dapsone]
I (interaction parameter) [2]: -0.39

[H]/N=C(\N/C(=N/[H])Nc1ccc(Cl)cc1)NC(C)C [Proguanil]
I (interaction parameter) [1]: 2.56 | I (interaction parameter) [3]: 2.56 | Mean Score ±SE (Pneumocystis; 25 mg/kg p.o. daily): 3.80 ± 0.13 | No. Infected/No. Examined (Pneumocystis; 25 mg/kg p.o. daily): 10/10 | number of mice with SCORE +1 (Pneumocystis; 25 mg/kg p.o. daily): 0 | number of mice with SCORE +3 (Pneumocystis; 25 mg/kg p.o. daily): 0 | number of mice with SCORE +4 (Pneumocystis; 25 mg/kg p.o. daily): 2 | number of mice with SCORE 0 (Pneumocystis; 25 mg/kg p.o. daily): 0 | number of mice with SCORE +4 (Pneumocystis; [4]): 8 | prophylaxis of PCP in the scid mouse (Pneumocystis; alone at 25 mg/kg/day): ineffective | % of Control (Pneumocystis; 25 mg/kg p.o. daily): 85% | survivors (T. gondii C56 strain; 25 mg/kg): no survivors | toxicity to mice (T. gondii C56 strain; 25 mg/kg): exhibits signs of toxicity | Mean Time to Death (T. gondii C56 strain; 25 mg/kg): 9.0 days and 9 days

CCn1cc(C(=O)O)c(=O)c2cc(F)c(N3CCNCC3)cc21 [Norfloxacin]
I (interaction parameter) [2]: 1.02

Oc1ncnc2[nH]ncc12 [Allopurinol]
I (interaction parameter) [1]: 0.43 | I (interaction parameter) [2]: 1.14
